We go through two compounds from US8735360B2 (priority 2009, dated 2014).

One data set relates to female CD-1 mice. In kind it is in vivo. Conditions: oral gavage, % distance travelled by charcoal front in small intestine.
Data set [1] relates to ligated duodenal loops in rats. In kind it is in vivo, rat. Conditions: 2.5 μg of peptide per loop.
The target of data set [2] is T1, GC-C (Homo sapiens, UniProt P25092). In kind it is cell-based. Conditions: cGMP response in T84 cells.
The target in data set [3] is T1, GC-C. It counts as binding.
The conditions of data set [4]: oral administration at therapeutic dose levels; cited from earlier work.

Each structure is given as a SMILES string. Positions of bridges follow the written chain, without caps; N, C: chain ends. Residues, ends and D or L forms follow the SMILES beside them.

T1 sequence (P25092 24-1073 limits assumed): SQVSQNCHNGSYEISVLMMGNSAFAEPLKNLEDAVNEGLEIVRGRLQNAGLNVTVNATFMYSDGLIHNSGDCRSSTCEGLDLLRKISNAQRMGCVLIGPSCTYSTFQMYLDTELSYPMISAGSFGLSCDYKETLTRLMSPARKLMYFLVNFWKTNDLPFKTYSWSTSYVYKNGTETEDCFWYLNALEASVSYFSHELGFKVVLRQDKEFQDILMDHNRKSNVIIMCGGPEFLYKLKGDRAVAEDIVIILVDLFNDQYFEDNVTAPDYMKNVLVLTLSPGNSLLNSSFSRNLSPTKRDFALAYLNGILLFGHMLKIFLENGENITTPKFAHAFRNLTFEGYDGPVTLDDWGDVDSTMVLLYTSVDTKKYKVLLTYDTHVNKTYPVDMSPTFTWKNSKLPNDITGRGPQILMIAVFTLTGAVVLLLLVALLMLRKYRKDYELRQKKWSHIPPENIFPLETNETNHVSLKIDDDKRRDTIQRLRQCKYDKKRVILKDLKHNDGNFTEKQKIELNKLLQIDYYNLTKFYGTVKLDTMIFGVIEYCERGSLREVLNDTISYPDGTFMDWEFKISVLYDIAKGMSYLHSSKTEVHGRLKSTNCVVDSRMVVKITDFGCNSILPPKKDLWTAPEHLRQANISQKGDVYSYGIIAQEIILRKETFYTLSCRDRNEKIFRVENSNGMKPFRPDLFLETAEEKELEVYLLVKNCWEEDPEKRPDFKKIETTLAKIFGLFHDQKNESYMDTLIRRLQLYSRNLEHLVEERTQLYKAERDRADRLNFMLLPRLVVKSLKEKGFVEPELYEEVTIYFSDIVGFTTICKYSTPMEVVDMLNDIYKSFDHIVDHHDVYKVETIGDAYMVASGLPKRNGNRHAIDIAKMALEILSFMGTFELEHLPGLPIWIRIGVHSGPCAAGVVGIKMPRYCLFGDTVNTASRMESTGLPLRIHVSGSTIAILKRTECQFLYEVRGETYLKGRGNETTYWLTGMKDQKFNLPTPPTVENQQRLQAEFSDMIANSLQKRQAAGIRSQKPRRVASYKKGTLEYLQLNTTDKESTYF

As for `C[C@@H]1NC(=O)[C@@H]2CCCN2C(=O)[C@H](CC(N)=O)NC(=O)[C@@H]2CSSC[C@H](NC(=O)[C@H](CC(=O)O)NC(=O)[C@@H](N)CC(=O)O)C(=O)N[C@H]3CSSC[C@H](NC1=O)C(=O)N[C@@H]([C@@H](C)O)C(=O)NCC(=O)N[C@H](C(=O)N[C@@H](Cc1ccc(O)cc1)C(=O)O)CSSC[C@H](NC(=O)[C@H](Cc1ccc(O)cc1)NC(=O)[C@H](CCC(=O)O)NC3=O)C(=O)N2` [Peptide 4, DDCCEYCCNPACTGCY] (H-DDCCEYCCNPACTGCY-OH; disulfide 3-8, 4-12, 7-15 (inferred); N-terminus and C-terminus assumed), in the data set with female CD-1 mice, the “ED50 in the gastrointestinal transit assay” value was 6.3 µg/kg. In addition, in data set [1], the “Rate of HCO3- accumulation” value was 80 neq/min/cm and the “Rate of fluid accumulation” value turned out to be 2.0 µL/min/cm. For the same compound, the “Ratio EC50 pH 8/EC50 pH 5” value on GC-C [2] is listed as 48.0. Also, the “Ratio Ki pH 8/Ki pH 5” value at GC-C [3] was determined as 5.27.

As for `C[C@@H]1NC(=O)[C@@H]2CCCN2C(=O)[C@H](CC(N)=O)NC(=O)[C@@H]2CSSC[C@H](N)C(=O)N[C@H]3CSSC[C@H](NC1=O)C(=O)N[C@@H]([C@@H](C)O)C(=O)NCC(=O)N[C@H](C(=O)N[C@@H](Cc1ccc(O)cc1)C(=O)O)CSSC[C@H](NC(=O)[C@H](Cc1ccc(O)cc1)NC(=O)[C@H](CCC(=O)O)NC3=O)C(=O)N2` [linaclotide, Linaclotide] (H-CCEYCCNPACTGCY-OH; disulfide 1-6, 2-10, 5-13), the “Levels seen systemically after oral administration” value in data set [4] was “no detectable levels”.
